# Results published in a melting point compilation (Tetko et al.; mined from patent text by program, amines drawn as free bases though some values may be those of a salt).
row,melting point,Compound
1,144 to 146 °C,COc1ccnc(C(=O)N[C@H]2COC[C@H](OCc3ccccc3)[C@@H](OCc3ccccc3)[C@H](C)OC2=O)c1O
2,189 to 193 °C,CCC(=O)NC(C)(C)COc1cccc2nc(C)c(C(=O)O)c(N)c12
3,195 to 197 °C,Cc1cc(-n2ccc(OCc3ccc(F)cc3)cc2=O)sc1C(=O)NCc1ccccc1
4,202 to 204 °C,CC1(C)CC(=O)Nc2ccc([N+](=O)[O-])cc21
5,129 to 130 °C,COc1cc(C(=O)Cc2ccccc2)cc([N+](=O)[O-])c1O
6,167 to 168 °C,CCN1CCCC1CNC(=O)c1cc(NS(=O)(=O)NC(C)(C)C)c(C)cc1OC (stereo not given)
7,174 to 178 °C,CC(C)(C)OC(=O)N1CCC(c2nc3cc(-c4ccc(S(C)(=O)=O)c(F)c4)ccc3o2)CC1
8,260 to 261 °C,O=C(O)c1cn(C2CC2)c2cc(N3CCC(c4ccncc4)C3)c(F)cc2c1=O (stereo not given)
9,94 to 97 °C,COC(=O)CCCc1cc2cc(Cl)ccc2n1S(=O)(=O)c1cccc2ccccc12
10,253 to 255 °C,Cc1ccc(S(=O)(=O)NC(=O)N2CCN(C(=O)c3ccc(Nc4ccnc5cc(C(F)(F)F)ccc45)cc3)CC2)cc1
11,92 to 94 °C,O=C(O)CCCCCSc1ccc(O)cc1
12,102 to 105 °C,Cc1nnc(SCC(=O)C23CC4CC(CC(C4)C2)C3)s1
13,280 °C,NS(=O)(=O)c1ccc(NC(=O)c2cccnc2SSc2ncccc2C(=O)Nc2ccc(S(N)(=O)=O)cc2)cc1
14,185 to 186 °C,CSC(=C(N)c1ccc2oc(C)cc2c1)S(C)=O (stereo not given)
15,132 to 134 °C,CN(C)Cc1cc(C(=O)c2cccs2)cc(C(C)(C)C)c1O
16,166 to 168 °C,COc1nc(OC)nc(OC(=O)c2cccc3cc(O)ccc23)n1
17,112 to 113 °C,Nc1cc(SCc2ccc(F)cc2)nn1-c1c(Cl)cc(C(F)(F)F)cc1Cl
18,178 to 180 °C,Fc1ccc(Nc2ncnc3cnc(N4CCC(N5CCNCC5)CC4)nc23)cc1Cl
19,38.5 to 40.5 °C,CCN(CC)C(=O)c1ccccc1C(C)(C)C
20,263 to 264 °C,CCOC(=O)Nc1cc(C)cc(Nc2c3cccc(C)c3nc3c(C(=O)NCCN(C)C)cccc23)c1
21,154 to 156 °C,O=C1C2=C(CCCC2)C(=O)N1c1cc([N+](=O)[O-])ccc1F
22,130 to 132 °C,CN(C)CCCCCCCCCCC(=N)NC(=S)Nc1ccc(Cl)cc1
23,254 °C,N#Cc1ncn2c(C(F)(F)F)cc(-c3ccncc3)nc12
24,142 to 145 °C,Cc1cc(NC(=O)c2ccccc2O)cc(C)c1O

row,melting point,Compound
1,97 to 98 °C,CN(CC1COc2ccccc2O1)S(N)(=O)=O (stereo not given)
2,121 to 123 °C,COc1ccc(OC)c(NC(=O)c2cc(OC)ccc2OC)c1
3,192 °C,OC1CCc2c(Br)ccc(Nc3cc(-c4ccc(C(F)(F)F)cc4)ncn3)c2C1 (stereo not given)
4,321 to 325 °C,NC(=O)Nc1nc2c(s1)-c1c(cnn1-c1ccccc1)CC2
5,260 to 262 °C,COc1cc2ncc(C#N)c(Nc3cc(C)c(C)cc3N)c2cc1OC
6,225 to 226 °C,CCc1cc(CC)c(-c2c(O)c(C)nn(C)c2=O)c(CC)c1Cl
7,166 to 168 °C,O=C(C(Cl)(Cl)Cl)C1(c2ccc(Cl)cc2)C=CC=N1 (stereo not given)
8,88 to 90 °C,COc1ccc(-c2nc(Cl)cc(N3CCN(C)CC3)n2)cc1
9,169 to 170 °C,N=C(N)NCCc1ccc(OCCCC(c2ccccc2)(c2ccccc2)c2ccccc2)cc1
10,64 to 66 °C,CCNC(=O)c1c(C)cccc1[Si](C)(C)C
11,211 °C,CC(CC(=O)NCCc1ccc(C(=O)O)cc1)(c1ccccc1)c1ccccc1
12,190 to 192 °C,CNC(=O)NS(=O)(=O)c1ccccc1C=CC(F)(F)F
13,156 to 157 °C,N#CCCN1CCN(Cc2ccc3c(c2)-c2[nH]nc(-c4ccsc4)c2C3)CC1
14,241 to 243 °C,CCOC(=O)c1c2n(c3cc(N4CCN(Cc5oc(=O)oc5C)CC4)c(F)cc3c1=O)C(C)S2 (stereo not given)
15,146 to 147 °C,N#Cc1cc(C(=O)CC(O)(c2cc(Cl)cc(Cl)c2)C(F)(F)F)ccc1F (stereo not given)
16,192 to 193 °C,O=C1CCN(Cc2ccc([N+](=O)[O-])cc2)C(=O)C1=C1SC=CS1
17,136 to 137 °C,CCOC(=O)Cc1nnc(-c2ccccn2)[nH]c1=O
18,103 to 106 °C,CN(C)C(=O)c1ccc(I)cc1
19,186 to 188 °C,OCCn1cc(C(F)(F)F)nc1-c1ccc(O)cc1
20,103 to 104 °C,COc1cc2ccsc2c(Cl)c1Cl
21,116 to 118 °C,COc1ccc(C(=C(CCBr)c2ccccc2)c2ccccc2)cc1
22,136 to 138 °C,CC(=O)OC1CSC(Oc2ccccc2-c2c(C)noc2C)C(OC(C)=O)C1OC(C)=O (stereo not given)
23,179 to 180 °C,O=C(NC(Cc1ccccc1)C(=O)O)c1ccc2cc(Oc3ccccc3)ccc2c1 (stereo not given)
24,118 to 119 °C,Cc1ccc2c(n1)N(CCCN(C(C)C)C(C)C)c1ccccc1N(C)C2=O

row,melting point,Compound
1,228 to 229 °C,Cc1nc2c3c(ccc2n1C)[C@H](O)C[C@H](c1ccccc1)O3 (relative stereo)
2,173 to 175 °C,NC(=S)NC(c1ccccc1)c1ccc(Cl)cc1 (stereo not given)
3,116 to 118 °C,COc1cc(NCCCN(C)Cc2ccccc2)ccc1C(N)=O
4,133 to 134 °C,COP(=O)(CC(=C(c1ccc(F)cc1)c1ccc(F)cc1)n1cnnn1)OC
5,151 to 152 °C,O=S(=O)(Nc1ccccc1Oc1ccc2ncccc2c1)c1ccc(Cl)cc1
6,135 to 141 °C,FC(F)(F)c1ccc(CC[C@H]2CNCCN2)cc1
7,255 to 256 °C,O=C(Oc1cc[nH]c(=O)c1)c1ccc([N+](=O)[O-])cc1
8,178 to 180 °C,O=C1CCCN(C(=O)Cc2ccccc2)C(=O)CCc2cc(Cl)ccc21
9,126 to 128 °C,CSC1C(=O)c2ccccc2N1C(=O)c1ccccc1 (stereo not given)
10,133 to 137 °C,CCc1cc(=O)c2c([nH]1)CCCC2
11,187 to 188 °C,CCOc1cc2cc(CO)nc(-c3ccc(Cl)c([N+](=O)[O-])c3)c2cc1OCC
12,220 °C,CC(C)(N)c1ccc(-c2nc(Nc3cc(F)c(F)c(F)c3)ncc2C#N)cc1
13,213 °C,Cc1nc(C(C)(C)C)ccc1/C=C/C(=O)Nc1ccc2[nH]c(CO)cc2c1
14,52 to 55 °C,N#CCCC(C#N)CSc1ccc2ccccc2c1 (stereo not given)
15,141 to 142 °C,NC(CC1CCCCC1)C(O)C(O)C1CC1 (stereo not given)
16,147 to 151 °C,CCOC(=O)C(=CNc1nnc(C)s1)C(=O)c1cc(F)c(F)cc1F
17,49 to 51 °C,O=C1c2ccccc2OCN1CCO[N+](=O)[O-]
18,129 to 131 °C,O=C(CCCN1CCN(c2ncc3ccccc3n2)CC1)c1ccc(F)cc1
19,173 to 174 °C,CCOCc1nc2c(N)nc3cc(-c4cccc(CO)c4)cnc3c2n1CC(C)(C)NS(C)(=O)=O
20,135 to 138 °C,COCc1cnc2c(N)cc(C)cc2c1Cl
21,177 to 178 °C,C=CC1CN(S(=O)(=O)c2ccc(C)cc2)CCN1S(=O)(=O)c1ccc(C)cc1 (stereo not given)
22,150 to 152 °C,CCOC(=O)C1=Cc2cc(Br)ccc2N(C=O)CC1
23,164 to 165 °C,CCCCCS(=O)(=O)NC(=O)/C=C/c1ccc(OCCOC)cc1Oc1cc(C(F)(F)F)ccc1[N+](=O)[O-]
24,130 °C,O=C(/C=C/C=C(c1cccc(F)c1)c1cccc(F)c1)Oc1ccc([N+](=O)[O-])cc1

row,melting point,Compound
1,204 to 205 °C,Cc1nc(-c2cn(Cc3ccc(C(F)(F)F)cc3)nn2)sc1C(=O)NCc1cccnc1
2,106 to 109 °C,C#CC(C)(C)N1CCN(C(=O)C(C)(C)C)CC1
3,167 °C,CCCCOC(=O)C(O)C1OC(n2cnc3c(N)ncnc32)C(O)C1O (stereo not given)
4,193 to 196 °C,O=C(Nc1ccc2c(c1)OCC(=S)N2)C(=O)N1CCC(Cc2ccccc2)CC1
5,155 to 157 °C,O=C(c1ccc(-n2ccnc2-c2ccccc2)cc1)C1CC1
6,107 to 108 °C,N#CCCCC1Sc2ccccc2NC1=O (stereo not given)
7,147 °C,OC(CC1CCNCC1)c1cc(-c2ccccc2)nc2ccccc12 (stereo not given)
8,99 to 100 °C,CCOC(=O)c1cn(Cc2ccccc2)nc1OCc1ccc(OCc2nc(-c3ccccc3)oc2C)cc1
9,208 °C,N#Cc1cnn2c(C(F)(F)F)cc(-c3ccccn3)nc12
10,36 °C,O=C(Cl)Oc1ccc(-c2ccccc2)cc1
11,197 to 199 °C,Cc1cc(C)cc(P(=O)(O)O)c1
12,155 to 156 °C,O=C1NCC[C@H](c2ccc(C(F)(F)F)cc2)[C@@H]1c1ccccc1 (relative stereo)
13,62 to 64 °C,O=C(c1ccc(F)cc1)C1CCN(CCCC2(c3ccc(F)cc3)OCCO2)CC1
14,137 °C,COC(=O)[C@@H]1C[C@H](C(=O)OC(C)(C)C)N(C(=O)CNC(=O)OC(C)(C)C)[C@@H]1c1ccccc1 (racemic)
15,95 to 98 °C,CC1(Cc2cccc(N)c2)Cc2ccccc2C1=O (stereo not given)
16,245 °C,O=C1c2ccccc2C(=O)c2sc(-c3ccoc3)nc21
17,214 to 215 °C,Clc1ccc2nc(N3CCN(c4ncccc4Cl)CC3)[nH]c2c1
18,222 to 223 °C,CSc1nnc(N2CCN(c3ccc(N4CC(CNC(C)=O)OC4=O)cc3F)CC2)s1 (stereo not given)
19,128 °C,Cc1coc(NC(=O)C2=C(O)c3c(c4ccccc4n3C)S(=O)(=O)N2C)n1
20,345 to 348 °C,Cc1[nH]c(-c2ccccc2)c2nc(-c3ccccc3)[nH]c(=O)c12
21,145 to 147 °C,Cc1cc(F)c(-n2cnc3ccccc3c2=O)cc1SCC(F)(F)F
22,150 to 152 °C,COc1c(Br)cc(Br)c2ccc(C=Cc3ccccc3)nc12
23,138 to 140 °C,O=c1ccccn1[C@@H]1C[C@H](O)[C@@H](O)[C@H]1O (racemic)

row,Compound,melting point
1,CC(C)n1cc(C(=O)Nc2nccs2)c2ccc(S(C)(=O)=O)cc21,247 to 249 °C
2,CNC(=O)c1cc(O)cc2c1N(C)C1N(C)CCC21C (stereo not given),202 to 204 °C
3,COc1ccc(S(=O)(=O)F)nn1,87 to 88 °C
4,Cc1c(C(=O)c2cccc(C(F)(F)F)c2F)c2ccc(Cl)c(Cl)c2n1CCCNS(C)(=O)=O,181 °C
5,CCCC(=O)c1ccc2[nH]cc3c2c1CC(N(CCC)CCC)C3 (stereo not given),151 to 153 °C
